PMC10199020 (Nature Communications, 2023)
Bridge positions count the residues as written; N and C are the ends. Square brackets hold non-standard residues; d marks the D form. Peptide text beside a SMILES is read from it. * marks the point of attachment. 5TAMRA = CN(C)c1ccc2c(c1)Oc1cc(N(C)C)ccc1C21OC(=O)c2cc(C(=O)*)ccc21; 2Nal = N[C@@H](Cc1ccc2ccccc2c1)C(=O)O; Pen = CC(C)(S)[C@H](N)C(=O)O; Aib = CC(C)(N)C(=O)O

Assays:
NL-IL23R with IL12Rβ1 = target: T1, NL-IL23R with IL12Rβ1 (Homo sapiens, UniProt P42701+Q5VWK5); assay: P630-TMR NanoBRET binding assay, NL-IL23R with IL12Rβ1; conditions: for BRET ratio, Specific (Mean) / BRET ratio, Non-specific (Mean): Fig. 2d, NL-IL23R with IL12Rβ1; for BRET ratio, Non-specific (Mean): with 10 μM P630; for BRET ratio with non-specific binding subtracted (Mean): Figure 2 sheet Panel f; for BRET ratio with non-specific binding subtracted (Mean) / % maximum BRET ratio / % of P630-TMR specific Bmax (Mean): NL-IL23R + IL12RB1; for % maximum BRET ratio / % of P630-TMR specific Bmax (Mean): Figure 2 sheet Panel g, Fig. 3d; for Mean NanoBRET binding signal (Figure 7 panel b): NL-IL23R +IL12RB1
T1 construct: expressed in transfected cells; host or cells: HEK293T (ATCC CRL-3216), transient transfection
T1 sequence (Q5VWK5 24-629, other chains not shown): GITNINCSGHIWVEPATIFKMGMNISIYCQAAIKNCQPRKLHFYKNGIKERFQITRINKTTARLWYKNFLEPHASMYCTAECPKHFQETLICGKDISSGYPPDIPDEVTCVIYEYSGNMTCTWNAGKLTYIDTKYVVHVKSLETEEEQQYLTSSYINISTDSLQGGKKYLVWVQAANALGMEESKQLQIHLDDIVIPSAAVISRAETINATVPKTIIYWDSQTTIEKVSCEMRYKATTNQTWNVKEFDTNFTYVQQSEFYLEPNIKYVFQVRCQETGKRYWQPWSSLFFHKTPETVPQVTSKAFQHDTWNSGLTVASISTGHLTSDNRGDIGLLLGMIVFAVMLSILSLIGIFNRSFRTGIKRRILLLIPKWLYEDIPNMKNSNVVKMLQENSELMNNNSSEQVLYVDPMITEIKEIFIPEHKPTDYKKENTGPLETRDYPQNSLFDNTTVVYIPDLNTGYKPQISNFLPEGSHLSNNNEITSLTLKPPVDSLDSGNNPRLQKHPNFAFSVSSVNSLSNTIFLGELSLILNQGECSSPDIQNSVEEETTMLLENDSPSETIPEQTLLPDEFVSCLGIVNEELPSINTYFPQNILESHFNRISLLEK
Source text: A standard curve was used to predict the expression level of NanoLuc labelled receptor in each experiment (Supplementary Fig. 1).
Fig. 2 Creation and characterisation of a fluorescent cyclic peptide probe for IL23R. […] Data are normally mean ± SEM from five independent experiments. Details on absolute number of data points included for each concentration are provided in the associated Source Data file. In each individual saturation experiment triplicate determinations were normally made for total binding and duplicate measurements were made for non-specific binding.
(§1) Media was removed from white 96-well microplates containing transfected cells and replaced with fluoroprobe in the presence or absence of antagonist in 50 μL Hanks Balanced Salt Solution (HBSS) with 1 mg/mL BSA (Merck). After a 1-hour incubation at 37 °C without CO2, 5 μL of HBSS containing 77 μM furimizine was added to each well (final concentration 7 μM), the plate incubated for 5-minutes and the BRET signal measured using a PheraStar FS plate reader (BMG Labtech; data acquisition software version 5.41; MARS analysis software version 3.32) with a 450 ± 30 nm and >550 nm long pass filters.
Ligand binding data were fitted with the equation:2 BRETratio=Bmax[A]/([A]+KD)+(BA+C). Where ‘Bmax’ is the maximum specific binding BRET signal, ‘[A]’ is fluorescent probe concentration, ‘B’ is the non-specific binding component’s slope and ‘C’ is the Y intercept.
Specific binding data was generated by subtracting the BRET values gained in the presence of an excess of unlabelled probe from the BRET ratios gained in the absence of unlabelled probe. Specific binding data were fit using the equation:3 Y=Bmax[B]/(B+KD) where ‘Bmax’ is the maximum specific binding signal of the curve and ‘[B]’ is the concentration of fluorescent probe.

C115Y mutated IL23R = target: T2, C115Y mutated IL23R (Homo sapiens, UniProt P42701+Q5VWK5, C115Y); assay: P630-TMR NanoBRET binding assay, C115Y mutant; conditions: for Mean NanoBRET binding signal (Figure 7 panel b): NL-IL23R (C115Y) + IL12Rβ1
T2 construct: expressed in transfected cells; host or cells: HEK293T, transient transfection
T2 sequence (Q5VWK5 24-629 C115Y, other chains not shown): as the sequence (Q5VWK5 24-629, other chains not shown) above, with C92Y counted along it
Protocol: Data are mean ± SEM from five (C115Y) or four (wildtype) independent experiments conducted in duplicate or triplicate. Details on absolute number of data points included for each concentration are provided in the associated Source Data file.
as §1, with “filters. P630-TMR binding assays were normalised to a final DMSO concentration of 0.1%.” for “filters.”

[1] = target: HiBit-IL23R and LgBit-IL12Rβ1 (Homo sapiens, UniProt Q5VWK5); assay: NanoBiT BRET binding assay; design: expressed in transfected cells; host or cells: HEK293T, transient transfection; conditions: for BRET ratio, Non-specific (Mean) / BRET ratio, Specific (Mean): Fig. 3b, NanoBiT complemented receptors; for % of P630-TMR specific Bmax (Mean): Fig. 3d, HiBit-IL23R + LgBit-IL12RB1
HiBit-IL23R and LgBit-IL12Rβ1, sequence (Q5VWK5 24-629, other chains not shown): as the sequence (Q5VWK5 24-629, other chains not shown) above
Source text: Finally, we utilised a NanoBiT BRET system in which a complemented luciferase with fragments bound to both receptor subunits (Fig. 3) can be used as a BRET donor to measure interactions with binary receptor complexes.
Data in b are mean ± SEM from three independent experiments. In each individual experiment, triplicate determinations were made for total binding and duplicate or triplicate determinations made for non-specific binding. Data in c are the mean values obtained in five independent experiments, each conducted with six replicates. […] Data in d are the mean ± SEM from five (NL-IL23R and NL-23R + IL12Rβ1) or three (HiBit-IL23R + LgBit-IL12Rβ1) independent experiments. Source data are provided as a Source Data file.
as §1

Structure (SMILES): COc1ccc(C[C@H](NC(=O)[C@H]2NC(=O)[C@H](CCC(N)=O)NC(=O)[C@H](Cc3c[nH]c4ccccc34)NC(=O)[C@H]([C@@H](C)O)NC(=O)[C@H](CC(N)=O)NC(=O)[C@@H](NC(C)=O)C(C)(C)SSC2(C)C)C(=O)N[C@@H](Cc2ccc3ccccc3c2)C(=O)NC(C)(C)C(=O)N[C@@H](CCC(=O)O)C(=O)N[C@@H](CC(N)=O)C(=O)N[C@@H](CC(N)=O)C(=O)N[C@@H](CCCCNC(=O)c2ccc3c(c2)C(=O)OC32c3ccc(N(C)C)cc3Oc3cc(N(C)C)ccc32)C(N)=O)cc1 [P630-TMR] (Ac-[Pen]NTWQ[Pen]Y(Me)[2Nal][Aib]ENNK(5TAMRA)-NH2; disulfide 1-6)
- BRET ratio, Specific (Mean) (NL-IL23R with IL12Rβ1; P630-TMR 0.457247 nM): 0.2512
- BRET ratio, Specific (Mean) (NL-IL23R with IL12Rβ1; P630-TMR 1.37174 nM): 0.271
- BRET ratio, Specific (Mean) (NL-IL23R with IL12Rβ1; P630-TMR 4.11523 nM): 0.315
- BRET ratio, Specific (Mean) (NL-IL23R with IL12Rβ1; P630-TMR 12.3457 nM): 0.4472
- BRET ratio, Specific (Mean) (NL-IL23R with IL12Rβ1; P630-TMR 37.037 nM): 0.6615
- BRET ratio, Specific (Mean) (NL-IL23R with IL12Rβ1; P630-TMR 111.111 nM): 1.003
- BRET ratio, Specific (Mean) (NL-IL23R with IL12Rβ1; P630-TMR 1000 nM): 1.323
- BRET ratio, Specific (Mean) (NL-IL23R with IL12Rβ1; P630-TMR 3000 nM): 1.6368
- BRET ratio, Non-specific (Mean) (NL-IL23R with IL12Rβ1; P630-TMR 0.457247 nM): 0.2426
- BRET ratio, Non-specific (Mean) (NL-IL23R with IL12Rβ1; P630-TMR 1.37174 nM): 0.2389
- BRET ratio, Non-specific (Mean) (NL-IL23R with IL12Rβ1; P630-TMR 4.11523 nM): 0.241
- BRET ratio, Non-specific (Mean) (NL-IL23R with IL12Rβ1; P630-TMR 12.3457 nM): 0.2439
- BRET ratio, Non-specific (Mean) (NL-IL23R with IL12Rβ1; P630-TMR 37.037 nM): 0.2477
- BRET ratio, Non-specific (Mean) (NL-IL23R with IL12Rβ1; P630-TMR 111.111 nM): 0.2531
- BRET ratio, Non-specific (Mean) (NL-IL23R with IL12Rβ1; P630-TMR 1000 nM): 0.3233
- BRET ratio, Non-specific (Mean) (NL-IL23R with IL12Rβ1; P630-TMR 3000 nM): 0.4914
- BRET ratio, Non-specific (Mean) (NL-IL23R with IL12Rβ1; P630-TMR […]): 0.2709
- BRET ratio with non-specific binding subtracted (Mean) (NL-IL23R with IL12Rβ1; P630-TMR 0.457247 nM): 0.01279
- BRET ratio with non-specific binding subtracted (Mean) (NL-IL23R with IL12Rβ1; P630-TMR 1.37174 nM): 0.03163
- BRET ratio with non-specific binding subtracted (Mean) (NL-IL23R with IL12Rβ1; P630-TMR 4.11523 nM): 0.07414
- BRET ratio with non-specific binding subtracted (Mean) (NL-IL23R with IL12Rβ1; P630-TMR 12.3457 nM): 0.203
- BRET ratio with non-specific binding subtracted (Mean) (NL-IL23R with IL12Rβ1; P630-TMR 37.037 nM): 0.4147
- BRET ratio with non-specific binding subtracted (Mean) (NL-IL23R with IL12Rβ1; P630-TMR 111.111 nM): 0.7498
- BRET ratio with non-specific binding subtracted (Mean) (NL-IL23R with IL12Rβ1; P630-TMR 1000 nM): 1.0032
- BRET ratio with non-specific binding subtracted (Mean) (NL-IL23R with IL12Rβ1; P630-TMR 3000 nM): 1.107
- % maximum BRET ratio / % of P630-TMR specific Bmax (Mean) (NL-IL23R with IL12Rβ1; P630-TMR 0.457247 nM): 1.58%
- % maximum BRET ratio / % of P630-TMR specific Bmax (Mean) (NL-IL23R with IL12Rβ1; P630-TMR 1.37174 nM): 3.558%
- % maximum BRET ratio / % of P630-TMR specific Bmax (Mean) (NL-IL23R with IL12Rβ1; P630-TMR 4.11523 nM): 8.249%
- % maximum BRET ratio / % of P630-TMR specific Bmax (Mean) (NL-IL23R with IL12Rβ1; P630-TMR 12.3457 nM): 22.4565%
- % maximum BRET ratio / % of P630-TMR specific Bmax (Mean) (NL-IL23R with IL12Rβ1; P630-TMR 37.037 nM): 45.1459%
- % maximum BRET ratio / % of P630-TMR specific Bmax (Mean) (NL-IL23R with IL12Rβ1; P630-TMR 111.111 nM): 80.9844%
- % maximum BRET ratio / % of P630-TMR specific Bmax (Mean) (NL-IL23R with IL12Rβ1; P630-TMR 1000 nM): 106.516%
- % maximum BRET ratio / % of P630-TMR specific Bmax (Mean) (NL-IL23R with IL12Rβ1; P630-TMR 3000 nM): 100.024%
- Mean NanoBRET binding signal (Figure 7 panel b) (NL-IL23R with IL12Rβ1; [P630-TMR] 0.8 nM): -0.0001896
- Mean NanoBRET binding signal (Figure 7 panel b) (NL-IL23R with IL12Rβ1; [P630-TMR] 4 nM): 0.1611
- Mean NanoBRET binding signal (Figure 7 panel b) (NL-IL23R with IL12Rβ1; [P630-TMR] 20 nM): 0.6859
- Mean NanoBRET binding signal (Figure 7 panel b) (NL-IL23R with IL12Rβ1; [P630-TMR] 100 nM): 1.691
- Mean NanoBRET binding signal (Figure 7 panel b) (NL-IL23R with IL12Rβ1; [P630-TMR] 500 nM): 2.556
- Mean NanoBRET binding signal (Figure 7 panel b) (NL-IL23R with IL12Rβ1; [P630-TMR] 2000 nM): 2.7354
- Kd (NL-IL23R with IL12Rβ1; NL-IL23R and IL12Rβ1, mean ± SEM): 51.1 ± 7.3 nM
- Binding to C115Y mutant receptor (C115Y mutated IL23R): blocked specific binding
- Mean NanoBRET binding signal (Figure 7 panel b) (C115Y mutated IL23R; [P630-TMR] 0.8 nM): -0.003437
- Mean NanoBRET binding signal (Figure 7 panel b) (C115Y mutated IL23R; [P630-TMR] 4 nM): -0.009288
- Mean NanoBRET binding signal (Figure 7 panel b) (C115Y mutated IL23R; [P630-TMR] 20 nM): -0.006407
- Mean NanoBRET binding signal (Figure 7 panel b) (C115Y mutated IL23R; [P630-TMR] 100 nM): -0.004647
- Mean NanoBRET binding signal (Figure 7 panel b) (C115Y mutated IL23R; [P630-TMR] 500 nM): -0.001312
- Mean NanoBRET binding signal (Figure 7 panel b) (C115Y mutated IL23R; [P630-TMR] 2000 nM): 0.003535
- BRET ratio, Non-specific (Mean) ([1]; P630-TMR 1.37174 nM): 0.09875
- BRET ratio, Specific (Mean) ([1]; P630-TMR 1.37174 nM): 0.105
- BRET ratio, Non-specific (Mean) ([1]; P630-TMR 4.11523 nM): 0.09641
- BRET ratio, Specific (Mean) ([1]; P630-TMR 4.11523 nM): 0.1138
- BRET ratio, Non-specific (Mean) ([1]; P630-TMR 12.3457 nM): 0.09986
- BRET ratio, Specific (Mean) ([1]; P630-TMR 12.3457 nM): 0.141
- BRET ratio, Non-specific (Mean) ([1]; P630-TMR 37.037 nM): 0.1012
- BRET ratio, Specific (Mean) ([1]; P630-TMR 37.037 nM): 0.1913
- BRET ratio, Non-specific (Mean) ([1]; P630-TMR 111.111 nM): 0.1006
- BRET ratio, Specific (Mean) ([1]; P630-TMR 111.111 nM): 0.2562
- BRET ratio, Non-specific (Mean) ([1]; P630-TMR 1000 nM): 0.1066
- BRET ratio, Specific (Mean) ([1]; P630-TMR 1000 nM): 0.3269
- BRET ratio, Non-specific (Mean) ([1]; P630-TMR 3000 nM): 0.1175
- BRET ratio, Specific (Mean) ([1]; P630-TMR 3000 nM): 0.3365
- % of P630-TMR specific Bmax (Mean) ([1]; P630-TMR 1.37174 nM): 2.813%
- % of P630-TMR specific Bmax (Mean) ([1]; P630-TMR 4.11523 nM): 8.07%
- % of P630-TMR specific Bmax (Mean) ([1]; P630-TMR 12.3457 nM): 19.2912%
- % of P630-TMR specific Bmax (Mean) ([1]; P630-TMR 37.037 nM): 41.1077%
- % of P630-TMR specific Bmax (Mean) ([1]; P630-TMR 111.111 nM): 71.2465%
- % of P630-TMR specific Bmax (Mean) ([1]; P630-TMR 1000 nM): 99.3007%
- % of P630-TMR specific Bmax (Mean) ([1]; P630-TMR 3000 nM): 100%
- Kd ([1]; HiBit-IL23R and LgBit-IL12Rβ1, mean ± SEM): 53.5 ± 4.4 nM
